# From patent US20040044006A1, “Methods of use of quinolone compounds against pneumococcal and haemophilus bacteria” (priority 1999, published 2004)
# Read-outs that look alike come from different tables or passages of the source.
# What was measured:
# [1] = test system: quinolone susceptible pneumococci (ciprofloxacin MICs ≦4.0 μg/ml); test: Agar dilution MICs of 207 quinolone susceptible pneumococcal strains; format: cell-based, Streptococcus pneumoniae; conditions: Streptococcus pneumoniae, agar dilution; for MIC90: read-out: MIC90; for MIC: read-out: MIC range
# Experimental: All susceptible, and some intermediate and resistant strains, were recent U.S. isolates. The remainder of intermediate and resistant strains were isolated in South Africa, Spain, France, Central and Eastern Europe, and Korea. […] Additionally these strains were tested for mutations in parC, gyrA, parE, and gyrB (Pan, et al., Antimicrob. Agents Chemother. 40:2321-2326, 1996) and for efflux mechanism (Brenwald, et al., Antimicrob. Agents Chemother. 42:2032-2035, 1998). For time-kill studies, 4 penicillin susceptible, 4 intermediate and 4 resistant strains (2 quinolone resistant) were tested, while for PAE studies 5 quinolone susceptible and 1 resistant strains were studied.
# (§1) Agar dilution methodology was performed on 234 strains as described previously (M. R. Jacobs, Clin. Infect. Dis. 15:119-127, 1992; Jacobs, et al., Rev. Med. Microbiol. 6:77-93, 1995), using Mueller-Hinton agar (BBL Microbiology Systems, Cockeysville, Md.) supplemented with 5% sheep blood. Broth MICs for 12 strains tested by time-kill and 6 tested by PAE were performed according to NCCLS recommendations (Methods for Dilution Antimicrobial Susceptibility Tests for Bacteria that Grow Aerobically, 3rd Edition, NCCLS, Villanova, Pa.) using cation-adjusted Mueller-Hinton broth with 5% lysed defibrinated horse blood. Standard quality control strains, including Streptococcus pneumoniae ATCC 49619, were included in each run of agar and broth dilution MICs.
# pneumococcal strains = test: Microbroth dilution MICs of strains tested by time-kill and PAE; format: cell-based; conditions: Streptococcus pneumoniae, read-out: Microdilution MIC
# Experimental: as §1
# [2] = test system: penicillin susceptible and resistant pneumococcal strains (2 quinolone resistant); test: Time-kill testing of 12 pneumococcal strains; format: cell-based, Streptococcus pneumoniae; conditions: 12 penicillin susceptible and resistant pneumococcal strains; 24 h; bactericidal = ≧3 log10 cfu/ml (99.9%) reduction
# Experimental: For time-kill studies, glass tubes containing 5 ml cation-adjusted Mueller-Hinton broth (Difco)+5% lysed horse blood with doubling antibiotic concentrations were inoculated with 5×10^5 to 5×10^6 cfu/ml and incubated at 35° C. in a shaking water bath. […] Growth controls with inoculum but no antibiotic were included with each experiment (Pankuch, et al., Antimicrob. Agents Chemother. 38:2065-2072, 1994; Pankuch, et al., Antimicrob. Agents Chemother. 40:1653-1656, 1996).
# Lysed horse blood was prepared as described previously. The bacterial inoculum was prepared by diluting a 16 h broth (medium as above) culture in the same medium. Dilutions required to obtain the correct inoculum (5×10^5-5×10^6 cfu/ml) were determined by prior viability studies using each strain (Pankuch, et al., Antimicrob. Agents Chemother. 38:2065-2072, 1994; Pankuch, et al., Antimicrob. Agents Chemother. 40: 1653-1656, 1996).
# To inoculate each tube of serially diluted antibiotic, 50 μl of diluted inoculum was delivered by pipette beneath the surface of the broth. Tubes were then vortexed and plated for viability counts within 10 min (approximately 0.2 h). The original inoculum was determined by using the untreated growth control. Only tubes containing an initial inoculum within the range of 5×10^5 to 5×10^6 cfu/ml were acceptable (Pankuch, et al., Antimicrob. Agents Chemother. 38:2065-2072, 1994; Pankuch, et al., Antimicrob. Agents Chemother. 40:1653-1656, 1996).
# Viability counts of antibiotic-containing suspensions were performed by plating ten-fold dilutions of 0.1 ml aliquots from each tube in sterile Mueller-t-Hinton broth onto trypticase soy agar 5% sheep blood agar plates (BBL). Recovery plates were incubated for up to 72 h. Colony Counts were performed on plates yielding 30-300 colonies. The lower limit of sensitivity of colony counts was 300 cfu/ml (Pankuch, et al., Antimicrob. Agents Chemother. 38:2065-2072, 1994; Pankuch, et al., Antimicrob. Agents Chemother. 40:1653-1656, 1996).
# Time-kill assays were analysed by determining the number of strains which yielded a log10 cfu/ml of −1, −2 and −3 at 0, 3, 6, 12 and 24 h, compared to counts at time 0 h. Antimicrobials were considered bactericidal at the lowest concentration that reduced the original inoculum by ≧3 log10 cfu/ml (99.9%) at each of the time periods, and bacteriostatic if the inoculum was reduced by 0-3 log10 cfu/ml. […] The problem of bacterial carryover was addressed as described previously. For macrolide time-kill testing, only strains with MICs≦4.0 μg/ml were tested (Pankuch, et al., Antimicrob. Agents Chemother. 38:2065-9072, 1994; Pankuch, et al., Antimicrob. Agents Chemother. 40:1653-1656, 1996).
# [3] = test system: pneumococci (5 quinolone susceptible and 1 resistant strains); test: Post-antibiotic effect (PAE) testing; format: cell-based, Streptococcus pneumoniae; conditions: 10×MIC; range over strains
# Experimental: The post-antibiotic effect (PAE) (Craig, et al., V. Lorian (ed.) Antibiotics in Laboratory Medicine, Williams and Wilkins, Baltimore, pages 296-399, 1996) was determined by the viable plate count method, using Mueller-Hinton broth (MHB) supplemented with 5% lysed horse blood when testing pneumococci. […] Additionally, the one quinolone resistant strain was exposed at quinolone concentrations 5×MIC. Tubes containing 5 ml broth with antibiotic were inoculated with approximately 5×10^6 cfu/ml. Growth controls with inoculum but no antibiotic were included with each experiment. Tubes were placed in a shaking water bath at 35° C. for 1 h. At the end of the exposure period, cultures were diluted 1:1000 to remove antibiotic.
# Viability counts were determined before exposure and immediately after dilution (0 h), and then every 2 h until tube turbidity reached a #1 McFarland standard. Inocula were prepared by suspending growth from an overnight blood agar plate in broth. The broth was incubated at 35° C. for 2-4 h in a shaking water bath until turbidity matched a #1 McFarland standard, and checked for viability by plate counts (Spangler, et al., Antimicrob. Agents Chemother. 41:2173-9176, 1997; Spangler, et al., Antimicrob. Agents Chemother. 42:1253-1255, 1998).
# The PAE was defined as PAE=T-C; T=time required for viability counts of an antibiotic-exposed culture to increase by 1 log10 above counts immediately after dilution; C=corresponding time for growth control. For each experiment, viability counts (log10 cfu/ml) were plotted against time, and results expressed as the mean of two separate assays±S D (Craig, et al., V. Lorian (ed), Antibiotics in Laboratory Medicine, Williams and Wilkins, Baltimore, pages 296-329, 1996).
# [4] = strain 1 (S) penicillin susceptible
# [5] = strain 2 (S) penicillin susceptible
# [6] = strain 3 (S) penicillin susceptible, quinolone-resistant
# [7] = strain 4 (S) penicillin susceptible, quinolone-resistant
# [8] = strain 5 (I) penicillin intermediate
# [9] = strain 8 (I) penicillin intermediate
# [10] = strain 9 (R) penicillin resistant
# [11] = strain 11 (R) penicillin resistant
# [12] = strain 12 (R) penicillin resistant
Structure (SMILES),MIC90 ([1]; Penicillin I strains) [µg/mL],MIC ([1]; Penicillin I strains) [µg/mL],MIC50 ([1]; Penicillin R strains) [µg/mL],MIC90 ([1]; Penicillin R strains) [µg/mL],MIC ([1]; Penicillin R strains) [µg/mL],MIC50 ([1]; Penicillin S strains) [µg/mL],MIC90 ([1]; Penicillin S strains) [µg/mL],MIC ([1]; Penicillin S strains) [µg/mL],MIC (pneumococcal strains; [4]) [µg/mL],MIC (pneumococcal strains; [5]) [µg/mL],MIC (pneumococcal strains; [6]) [µg/mL],MIC (pneumococcal strains; [7]) [µg/mL],MIC (pneumococcal strains; [8]) [µg/mL],MIC (pneumococcal strains; [9]) [µg/mL],MIC (pneumococcal strains; [10]) [µg/mL],MIC (pneumococcal strains; strain 10 (I)) [µg/mL],MIC (pneumococcal strains; [11]) [µg/mL],MIC (pneumococcal strains; [12]) [µg/mL],concentration at which bactericidal after 24 h [2] [×MIC],PAE for non-quinolone compounds [3] [h],other results
"CC1(C)S[C@@H]2[C@H](NC(=O)[C@H](N)c3ccc(O)cc3)C(=O)N2[C@H]1C(=O)O [Amoxicillin, amoxicillin]",1,0.016 to 4,2,4,0.5 to 8,0.016,0.06,0.008 to 0.25,0.016,0.016,0.008,0.008,0.03,0.06,1,1,2,2,2,0.3 to 5.8,–
"CO/N=C(\C(=O)N[C@@H]1C(=O)N2C(C(=O)O)=C(COC(N)=O)CS[C@H]12)c1ccco1 [Cefuroxime, cefuroxime]",2,0.125 to 8,8,16,0.5 to 32,0.03,0.25,0.008 to 2,0.5,0.25,0.016,0.016,0.5,0.25,2,0.5,4,2,4,0.8 to 2.9,MIC50 ([1]; Penicillin I strains): 0.5 µg/mL; MIC (pneumococcal strains; strain 6 (I) penicillin intermediate): 0.5 µg/mL; MIC (pneumococcal strains; strain 7 (I) penicillin intermediate): 0.5 µg/mL
